Experiments:
[1] = molecular target: T1, DmMmp2 (Drosophila melanogaster, UniProt Q8MPP3); test: gelatin zymography of FLAG immunoprecipitate; format: biochemical; details: GM6001 25 uM in sample before electrophoresis, 10 uM in renaturing and developing buffers; gelatin substrate; complete inhibition, no constant
T1 construct: gene Mmp2; full-length cDNA, 3xFLAG inserted after S710 (before GPI-anchor signal), expressed in S2 cells, immunoprecipitated from conditioned media (released form); ~110 kDa in lysate
T1 sequence (Q8MPP3 137-738): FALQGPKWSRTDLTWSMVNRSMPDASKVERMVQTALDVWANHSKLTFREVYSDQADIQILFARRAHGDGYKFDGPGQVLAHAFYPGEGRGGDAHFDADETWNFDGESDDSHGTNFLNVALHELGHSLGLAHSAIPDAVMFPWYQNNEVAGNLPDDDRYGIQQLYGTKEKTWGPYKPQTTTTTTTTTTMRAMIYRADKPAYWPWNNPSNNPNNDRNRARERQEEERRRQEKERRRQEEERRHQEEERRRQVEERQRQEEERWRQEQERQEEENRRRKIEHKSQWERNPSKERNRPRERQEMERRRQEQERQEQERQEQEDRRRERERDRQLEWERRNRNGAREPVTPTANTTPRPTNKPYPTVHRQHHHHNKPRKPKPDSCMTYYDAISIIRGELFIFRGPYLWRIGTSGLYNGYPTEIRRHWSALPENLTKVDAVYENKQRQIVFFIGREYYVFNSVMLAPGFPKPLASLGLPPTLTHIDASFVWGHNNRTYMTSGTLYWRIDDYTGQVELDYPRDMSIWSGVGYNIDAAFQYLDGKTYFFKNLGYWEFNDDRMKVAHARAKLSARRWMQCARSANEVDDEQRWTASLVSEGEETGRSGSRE

[2] = molecular target: T2, DmMmp1 (Mmp1-PF) (Drosophila melanogaster, UniProt Q8MLN6); format: biochemical; details: GM6001 25 uM in sample before electrophoresis, 10 uM in renaturing and developing buffers; casein substrate; complete inhibition, no constant
T2 construct: full-length cDNA (541 residues), C-terminal FLAG kept, expressed in S2 cells, immunoprecipitated from conditioned media; secreted form has lost pro-domain; ~65 kDa in lysate
T2 sequence (Q8MLN6 109-541): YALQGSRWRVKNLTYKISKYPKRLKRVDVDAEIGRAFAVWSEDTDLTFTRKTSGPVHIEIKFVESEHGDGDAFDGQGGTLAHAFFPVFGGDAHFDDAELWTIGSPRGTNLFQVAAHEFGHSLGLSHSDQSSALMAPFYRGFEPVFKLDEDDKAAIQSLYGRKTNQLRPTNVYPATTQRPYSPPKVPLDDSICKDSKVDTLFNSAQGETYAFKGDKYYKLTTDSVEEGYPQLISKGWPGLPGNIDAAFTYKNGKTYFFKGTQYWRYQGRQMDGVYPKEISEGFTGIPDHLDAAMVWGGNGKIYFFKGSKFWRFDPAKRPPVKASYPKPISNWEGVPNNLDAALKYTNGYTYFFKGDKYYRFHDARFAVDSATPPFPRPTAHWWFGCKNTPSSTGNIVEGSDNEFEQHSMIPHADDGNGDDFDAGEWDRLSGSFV

With `CNC(=O)[C@H](Cc1c[nH]c2ccccc12)NC(=O)[C@@H](CC(=O)NO)CC(C)C` [GM6001] the “gelatin zymography of FLAG immunoprecipitate” value [1] was “GM6001 completely inhibited Mmp1 and Mmp2 catalytic activity on zymograms” and the “casein zymography of FLAG immunoprecipitate” value [2] was “GM6001 completely inhibited Mmp1 and Mmp2 catalytic activity on zymograms”.

Source: paper PMC5353688, “Both Drosophila matrix metalloproteinases have released and membrane-tethered forms but have different substrates” (Scientific Reports, 2017)
